US20190192458A1, “THERAPEUTIC/PROPHYLACTIC AGENT FOR GRAFT-VERSUS-HOST DISEASE, FIBROCYTE INVASION INHIBITOR, AND INHIBITOR AGAINST TEAR REDUCTION AND REDUCTION IN GOBLET CELLS” (KEIO UNIVERSITY, priority 2016, published 2019)

Test system: CTGF
Test: Immunoblot analysis of fibrosis marker CTGF in organs
Type: in vivo, mouse
Details: PBA-treated vs vehicle-treated organs, n=4, P<0.05, FIG. 5B, 5C
Protocol: Bone marrow transplantation was performed as described in the above section “Bone marrow transplantation,” and the resulting allogeneic bone marrow transplantation recipient mice were divided into two groups. One group was treated with intraperitoneal injection of PBA (10 mg/kg) (Aldrich) while the other was treated with intraperitoneal injection of a solvent vehicle⋅phosphate buffered saline (PBS) (pH 7.4). The allogeneic bone marrow transplantation recipients received once-daily administration of PBA or the solvent vehicle from Day 10 to Day 27 after bone marrow transplantation. They were sacrificed on Day 28 after bone marrow transplantation. […]
Proteins of interest were visualized by either one of the following two methods. (1) A target protein was colorimetrically detected using a BCIP/NBT substrate (Promega). […]
The intensity of the resulting protein band was analyzed using image processing software ImageJ. […]
With regard to the secondary antibody, (1) either AP-conjugated anti-mouse IgG antibody (Promega) or AP-conjugated anti-rabbit IgG antibody (Promega) was used when protein bands were chromogenically visualized; (2) HRP-conjugated anti-mouse antibody (Thermo Fisher Scientific) or HRP-conjugated anti-rabbit antibody (Thermo Fisher Scientific) was used when target proteins were detected by ECL.

Structure (SMILES): O=C(O)CCCc1ccccc1 [PBA, 4-phenyl-n-butyric acid]
- CTGF expression in organs: overexpressed in the vehicle-treated organs, but not in the PBA-treated organs
